{"source": "patent US10526343B2", "about": "“Heterocyclic systems and pharmaceutical applications thereof” (University of Sharjah, priority 2018, dated 2020)", "key": {"[1]": {"test_system": "Staphylococcus aureus (ATCC 25923)", "experiment": "Cell viability assay (resazurin) screening for antibacterial activity", "format": "cell-based", "conditions": "single high concentration of 1 mg/mL"}, "[2]": {"test_system": "S. aureus (ATCC 25923)", "experiment": "MIC by broth microdilution", "format": "cell-based", "conditions": "Staphylococcus aureus, ATCC25923", "description": "Bacteria of the genus Staphylococcus were selected for MIC investigation due to its clinical importance. Compounds showing activity against S. aureus (ATCC 25923) were tested against 10 multidrug-resistant strains of Staphylococcus species, including: clinical isolates methicillin-resistant Staphylococcus aureus (MRSA) strains MRSA-1, MRSA-2, and MRSA-3, and environmental isolates S. saprophyticus (strains UDH-1, UDH-2, UDH-3 and UDH-4), S. haemolyticus (strains UDH-6 and UDH-7), and S. epidermidis strain UDH-5.\n(§1) A broth microdilution method was used to measure MIC according to the Clinical and Laboratory Standards Institute guidelines. Two-fold serial dilutions of the test compound (8 concentrations ranged between 100-0.78 μg/mL) were tested. Two reference antibiotics were used as quality controls (ciprofloxacin and amikacin). In each experiment, solvent (DMSO) was used as a negative control, un-treated control (composing of bacteria in Mueller-Hinton broth) was used as a growth control, blank (culture media alone) was used as sterility control. The 96-well microplate with the test compounds was incubated for 20 hours at 37° C. Turbidity in wells indicated bacterial growth. […] For the definite determination of MIC, CellTiter-Blue® Cell Viability Assay (Promega, USA) was used (as above). The MIC was defined as the lowest compound concentration that prevented the color change of the Cell Viability solution (absence of bacterial growth; thus, suspension remained blue in color). For the definite determination of MIC, CellTiter-Blue® Cell Viability Assay (Promega, USA) was used (as above). To each well of the 96-well microplate, 20 μL of the Cell Viability Assay solution was added to the overnight (20 hours culture) and incubated at 37° C. for 4 hours. After the end of the incubation, pink and blue colors were used to differentiate viable from dead bacterial suspensions, respectively. The MIC was defined as the lowest compound concentration that prevented the color change."}, "[3]": {"test_system": "MRSA-2 (clinical isolate, methicillin-resistant Staphylococcus aureus)", "experiment": "MIC by broth microdilution", "format": "cell-based", "description": "(§2) Bacteria of the genus Staphylococcus were selected for MIC investigation due to its clinical importance.\nas §1, with “Two reference antibiotics were used as quality controls (ciprofloxacin and amikacin).” left out"}, "[4]": {"test_system": "MRSA-1 (clinical isolate, methicillin-resistant Staphylococcus aureus)", "experiment": "MIC by broth microdilution", "format": "cell-based", "description": "as §2\nas §1, with “Two reference antibiotics were used as quality controls (ciprofloxacin and amikacin).” left out"}, "[5]": {"test_system": "MRSA-3 (clinical isolate, methicillin-resistant Staphylococcus aureus)", "experiment": "MIC by broth microdilution", "format": "cell-based", "description": "as §2\nas §1, with “Two reference antibiotics were used as quality controls (ciprofloxacin and amikacin).” left out"}, "[6]": {"test_system": "Enterococcus faecalis (ATCC 29212)", "experiment": "Cell viability assay (resazurin) screening for antibacterial activity", "format": "cell-based", "design": "key: Positive: A positive result indicates antibacterial activity expressed as growth inhibition; Negative: a negative result indicates no antibacterial activity expressed as bacterial growth at the tested concentration", "conditions": "single high concentration of 1 mg/mL"}, "[7]": {"test_system": "Pseudomonas aeruginosa (ATCC 27853)", "experiment": "Cell viability assay (resazurin) screening for antibacterial activity", "format": "cell-based", "design": "key: Positive: A positive result indicates antibacterial activity expressed as growth inhibition; Negative: a negative result indicates no antibacterial activity expressed as bacterial growth at the tested concentration", "conditions": "single high concentration of 1 mg/mL"}, "[8]": {"test_system": "Bacillus subtilis (environmental isolate)", "experiment": "Cell viability assay (resazurin) screening for antibacterial activity", "format": "cell-based", "design": "key: Positive: A positive result indicates antibacterial activity expressed as growth inhibition; Negative: a negative result indicates no antibacterial activity expressed as bacterial growth at the tested concentration", "conditions": "single high concentration of 1 mg/mL"}, "[9]": {"test_system": "MRSA-1", "experiment": "Time-kill study", "format": "cell-based, Staphylococcus aureus", "description": "Time-kill study: Compound 1o was tested for the time required to kill the bacterial strain MRSA-1. A time-kill assay was performed by the broth micro-dilution method in accordance with the CLSI guidelines. Inoculum suspensions with approximately 5×10^5 CFU/mL of exponentially growing bacterial cells were incubated in each well of a 96-well plate. […] Aliquots of 20 μL were removed from the inoculum culture after timed intervals of incubation (i.e. 0, 30 minutes, 1, 2, 4, 6, 8, and 24 hours), and serial 10-fold dilutions were prepared in 0.85% sodium chloride solution. Then, 10-100 μL of each dilution (as appropriate) were spread on the surface of Mueller-Hinton agar plates and incubated at 37° C. for 24 hours. Plate count technique was used to determine the number of viable cells for each time point. The experiments were performed in triplicate. Meropenem and ciprofloxacin were used as quality control antibiotics."}}, "data": [{"smiles": "COC(=O)CC1COc2c(cc3c4c2CCCN4CCC3)-c2c(NC(C)(C)C)n3c(-c4ccc(Br)cc4)c(C)sc3[n+]21", "note": "(centres unmarked) [Compound 1o]", "values": [{"measurement": "antibacterial activity, Staphylococcus aureus", "setting": "[1]", "result": "positive antibacterial activities"}, {"measurement": "MIC", "setting": "[2]", "result": 3.12, "unit": "µg/mL"}, {"measurement": "MIC", "setting": "[3]", "result": 3.12, "unit": "µg/mL"}, {"measurement": "times lower than the MIC of ciprofloxacin", "setting": "[4]; MRSA-1", "result": "approximately 10 times"}, {"measurement": "MIC", "setting": "[4]; Staphylococcus aureus, MRSA, clinical isolate", "result": 3.12, "unit": "µg/mL"}, {"measurement": "MIC", "setting": "[5]", "result": 3.12, "unit": "µg/mL"}, {"measurement": "antibacterial activity, Enterococcus faecalis", "setting": "[6]", "result": "Positive"}, {"measurement": "antibacterial activity, Pseudomonas aeruginosa", "setting": "[7]", "result": "Negative"}, {"measurement": "antibacterial activity, Bacillus subtilis", "setting": "[8]", "result": "Positive"}, {"measurement": "time of exposure at which killing was achieved", "setting": "[9]; 12.5 μg/mL", "result": 6, "unit": "h"}, {"measurement": "time of exposure at which killing was achieved", "setting": "[9]; 25 μg/mL", "result": 2, "unit": "h"}, {"measurement": "time of exposure at which killing was achieved", "setting": "[9]; 3.125-6.25 μg/mL", "result": 24, "unit": "h"}, {"measurement": "time of exposure to complete elimination of MRSA growth", "setting": "[9]; concentration ≥50 μg/mL", "result": "≤ 30", "unit": "min"}, {"measurement": "time of exposure at which killing was achieved", "setting": "[9]; concentrations between 50-100 μg/mL", "result": 0.5, "unit": "h"}]}]}
